Data from US9328130B2, “Method of treating organism by biologically active compounds specifically delivered into mitochondria, pharmaceutical composition required for the use of the method and a compound applicable for this purpose” (MITOTECH S.A., priority 2005, dated 2016).

Tests used:
[1] = system: human lung fibroblasts; assay: Protection from apoptosis caused by H2O2; assay type: cell-based; details: preincubation with 20 nM for 6 days
Procedure: Normal diploid fibroblasts from human skin and lung, human uterus carcinoma cells (HeLa cells) and human lymphoma cells (U 937 strain) were used in this experiment. Cells were cultivated in standard media (DMEM or RPMI) in the presence of 10% fetal serum at 37° C. and 5% CO2. Experiments were carried out on the cultured cells grown to 30-50% confluency. H2O2 was added once and the cells were analyzed after 18-24 h of incubation. Apoptotic death was monitored by condensation of chromatin and nucleus fragmentation after staining the cells with Hoechst 33342 (1 μg/ml, 15 min). 300-500 cells were taken into account from each preparation and the final results are the average of 3-5 independent experiments. Necrosis was determined by staining of nuclei with propidium iodide (2 μg/ml, 5 min). […] It was confirmed that apoptosis in all cases was accompanied with decrease of mitochondrial membrane potential, release of cytochrome c from mitochondria into cytoplasm and activation of caspases.

[2] = Light-dependent inactivation of gramicidin channel in model lipid membrane with phthalocyanine photosensitizer; assay type: biochemical; details: SkQ1 at 1 μM
[3] = system: OXYS rats; assay: Cataract and macular dystrophy in senescence-accelerated OXYS rats; assay type: in vivo, rat
Procedure: The animals were housed in cages (45*35*35 cm) and kept under standard laboratory conditions (at 22±1° C., 60% relative humidity, and natural light), provided with a standard rodent diet (PK-120-1, Ltd. ‘Laboratorsnab’, Russia), and given water ad libitum. At the age of 1.5 months after preliminary pupil dilation with 1% tropicamide ophthalmic the rats were conducted through ophthalmoscopic examination using direct ophthalmoscop “Betta”, Germany. […] We use Vitamin E for a comparison with test antioxidants. Animals received the compounds on a small piece of dried bread before a regular meal, and the control group of animals received the same piece of bread without any compound. After completing the course of antioxidants the animals were retested with ophthalmoscope. To avoid human factor in the evaluation of compound effects the researcher who conducted the ophthalmoscopic examination was not told which of the animals received antioxidants. The lens state was evaluated according to the classification system accepted in clinical practice with grades ranging from 0 to 3: score 0—the lens is clear; score 1—spotted weak cloudiness; score 2—multiple spots of cloudiness and score 3—intense cloudiness of the lens core and nucleus.

[4] = Spontaneous oxidation of reduced (quinol) forms by air oxygen; assay type: physicochemical; details: 20 mM MOPS-KOH, pH=7.6; aerobic
Procedure: Stability of the reduced (quinols) forms of SkQ1 and MitoQ under aerobic conditions was examined by analysis of the absolute absorption spectra of these compounds in a range from 240 to 310 nm using double-beam spectrophotometer Pye Unicam SP1100, England. Quinone derivatives were reduced with sodium tetrahydroborate in the medium containing 20 mM MOPS-KOH, pH=7.6. […] The level of reduced quinones was estimated by the size of peak area using the weighing method; absolute absorption value at 267 nm (maximum absorption) was used as a control.

[5] = system: Hela cells; assay: Necrosis after photodynamic treatment (chloromethyl-X-rosamine, green light); assay type: cell-based, human
Procedure: Protection from photodynamic treatment was studied using cultured HeLa cells. Cells were incubated with photosensitizer chloromethyl-X-rosamine (0.5 μM, 15 min) which was then selectively accumulated within mitochondria. Cells were photoirradiated with green light (at maximum absorption for photosensitizer of […]) through the objective of microscope Axiovert 200M (Zeiss, Germany) for 1-2 min and analyzed 5 h later. Necrosis was determined by staining of nuclei with propidium iodide (2 μg/ml, 5 min).

[6] = system: Plants cuttings; assay: Development of higher plants under darkness stress; assay type: in vivo
Procedure: Plants cuttings were grown at the artificial agarized medium MS supplemented with 1 μM SkQ1 (3 plants) and with no addition of SkQ1 as a control (3 plants). Cuttings were placed into 50 ml transparent tubes and grown in climate chamber for 3 weeks at 27° C. and periodical illumination (14 h of light, 10 h of darkness). Then the plants were subjected to darkness stress, i.e. were grown in complete darkness for 7 days.

[7] = system: Hela cells; assay: Morphology of HeLa cells; assay type: cell-based, human
Procedure: Normal fibroblasts from the human skin and lung and HeLa cells were cultivated at low cell density (20-30% confluency). Morphometric measurements were carried out for cell area, dispersion and elongation. Cytoskeleton structures were analyzed by staining the fixed cell preparations with rhodamine falloidin (actin filaments), antibodies against tubulin (microtubules) and vinculin (surface contacts). Mobility of the cells was examined with the help of microvideo camera.

[8] = system: Hela cells; assay: Transmission of apoptotic signal between inducer and recipient slides; assay type: cell-based, human; details: for apoptosis at slide-recipient: TNF
Procedure: HeLa cells were used in these experiments. Cells grown on a glass slide were treated with different apoptosis-inducing agents (tumor necrosis factor (TNF), staurosporine, H2O2) for 3 h. Then the glass slide with cells (inducer) was washed to remove these reagents and placed into Petri plate to come into contact with glass slide (recipient) with cells grown in the absence of any apoptosis-inducing agent. After 16-18 h of subsequent growth and staining the cells with Hoechst 33342 as described above, apoptosis at both glass slides was analyzed.
Thus the main mediator of apoptosis signal was H2O2.

[9] = system: coronary arteries of the isolated hearts of rats; assay: Isolated perfused rat heart, perfusion pressure during H2O2 introduction; assay type: in vivo
Procedure: It is known that reactive oxygen species (ROS) have regulatory or toxic effects on a cardiac muscle depending on their concentrations. When studying SkQ1 compound its ability to modulate ROS action has been found. Experiments have been carried out in the isolated hearts of rats which were given SkQ1 intravenously or with nutrition (50 μg/kg). The heart was isolated 2 hours after intravenous introduction of the compound, or after 2-week nutritional supplementation. The heart was perfused retrogradely according to a standard procedure by Krebs solution with a constant rate, and perfusion pressure (PP) characterized the tonus of coronary arteries. A spontaneous heart rate and isovolumic pressure in a left ventricular latex balloon were also recorded. These parameters were monitored at 40-minute introduction of 150 mcM H2O2, a standard ROS generator.

[10] = system: Yarrowia lipolytica; assay: Protection of yeast cells from death caused by hydrogen peroxide; assay type: cell-based
[11] = OXYS rats age 3 months after oral course

CC1=C(C)C(=O)C(CCCCCCCCCC[P+](c2ccccc2)(c2ccccc2)c2ccccc2)=CC1=O.[Br-] [SkQ1, 2,3-dimethyl-1,4-benzoquinon-5-decyl-triphenylphosphonium bromide]
apoptosis among cell population ([1]; 100 μM H2O2): 7±3%
apoptosis among cell population ([1]; 200 μM H2O2): 12±5%
light-dependent inactivation of gramicidin [2]: completely prevents
2nd stage of cataract [3, 11]: all of them were defined as the 1st stage of cataract
2nd stage of macular degeneration [3, 11]: also were defined as the 1st stage of macular degeneration
changes in the macular area of the retina [3, 11]: 38%
eyes with lens changes ([3]; OXYS rats age 3 months after oral course from 1.5 to 3 months): 46%
autooxidation of the reduced (quinol) form by air oxygen relative to MitoQ [4]: about three-fold lower
necrotic cell death ([5]; 1 μM added 1 h before photoirradiation): 15±5%
necrosis from photodynamic treatment ([5]; preincubated with 20 nM for 6 days): 25±5%
colour of plants after darkness stress ([6]; 1 μM in MS medium, 7 days complete darkness): retained their green color
plant size in comparison to control plants ([6]; 1 μM, additional 20 days normal lighting): more than 3 times
amount of actin filaments [7]: increased
mean density of filaments [7]: not changed
mean area, times higher ([7]; same treatment as fibroblasts): 2.6 times
H2O2 concentration in the medium ([8]; 24 hours after contact, inductor cells preincubated): 40 ± 10 nM
apoptosis at slide-recipient ([8]; preincubation of inducer with 20 nM): 17±3%
apoptosis at slide-recipient ([8]; preincubation of recipient cells): 16±4%
protective effect on recipient cells ([8]; corrected for 12±3% apoptosis from emetine): ~100%
apoptosis at slide-inducer caused by TNF ([8]; inductor cells incubated with 20 nM for 6 days): 90±5%
H2O2 concentration in the medium ([8]; recipient cells preincubated): did not lead to decrease of H2O2 concentration
PP change at the end of H2O2 introduction ([9]; prolonged consumption): −29±6 mmHg
maximal PP decline ([9]; prolonged consumption (2-week nutritional supplementation)): −38±5 mmHg
maximal PP decline versus initial level before H2O2 ([9]; single intravenous introduction): −43±5 mmHg
minimal perfusion pressure (PP) level ([9]; single intravenous introduction 50 μg/kg, heart isolated 2 hours later, 150 mcM H2O2): 77±2 mm Hg
concentration as effective as 25 μM α-tocopherol [10]: 10 -fold lower
death of cells caused by hydrogen peroxide ([10]; 10 mM hydrogen peroxide): partially prevents the death
effect on survival compared among protectants ([10]; FIG. 14, α-tocopherol 25 μM): very similar
